What follows are compounds tested against T1, Tau K18 fragment aggregates (amino acids 244 to 372 of human Tau441) (Homo sapiens, UniProt P10636) (assay: Tau K18 disaggregation assay by ThT). Settings: ThT fluorescence; 2 μM K18 aggregates, 30 minutes at RT.
T1 construct: encompassing amino acids 244 to 372 of the longest isoform (2N4R) of human Tau441; purchased Biotechne; host or cells: bacteria
Assay type: biochemical
Method: Tau K18 Disaggregation Assay by ThT
The Tau K18 fragment, encompassing amino acids 244 to 372 of the longest isoform (2N4R) of human Tau441, was expressed in bacteria and purified (Biotechne). For the K18 disaggregation assay by ThT, 35 μM of recombinant K18 in PBS were aggregated for 24 hours at 37° C. in presence of 25 μM of heparin (Sigma-Aldrich) and 10 mM of 1,4-Dithiothreito (DTT from Sigma-Aldrich) under shaking at 750 RPM. Compound 1 was dissolved in anhydrous dimethyl sulfoxide (DMSO, Sigma-Aldrich) to reach a concentration of 10 mM. K18 aggregates and serial dilutions of compounds were mixed together in PBS (volume 50 μL) to a final concentration of 2 μM of K18 aggregates and from 400 to 0.1 μM of Compound 1. The mixture was incubated for 30 minutes at room temperature (RT), then 40 μL of this mixture were transferred into a black 384-well plate assay (Perkin-Elmer) and mixed with 10 μL of 100 μM ThT in 250 mM glycine (both from Sigma-Aldrich) in PBS. Fluorescence (relative fluorescence units; RFU) was measured in monoplicate or duplicate on a Tecan reader (excitation: 440 nm; emission: 485 nm). Percentage of K18 disaggregation was then calculated and half maximal effective concentration (EC50) was determined using GraphPad Prism version 8 (GraphPad Software) assuming a one-binding site fitting model, see Table 3 and Table 4.

T1 sequence (P10636 561-689): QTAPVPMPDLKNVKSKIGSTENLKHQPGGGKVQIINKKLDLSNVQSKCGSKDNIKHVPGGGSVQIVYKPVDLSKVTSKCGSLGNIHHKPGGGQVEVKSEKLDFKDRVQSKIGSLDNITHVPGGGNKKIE

Compound	EC50 [µM]
O=C(Nc1ccc2nc(N3CCOCC3)oc2c1)c1c[nH]c2ccccc12 [Example 14, N-(2-morpholinobenzo[d]oxazol-6-yl)-1H-indole-3-carboxamide]	10 to 50
O=C(Nc1ccc2nc(N3CCOCC3)oc2c1)c1c[nH]c2ncccc12 [Example 15, N-(2-morpholinobenzo[d]oxazol-6-yl)-1H-pyrrolo[2,3-b]pyridine-3-carboxamide]	10 to 50
O=C(Nc1ccc2nc(N3CCOCC3)oc2c1)c1n[nH]c2ccccc12 [Example 16, N-(2-morpholinobenzo[d]oxazol-6-yl)-1H-indazole-3-carboxamide]	10 to 50

More lines, now with the values ahead:

EC50 [µM]	Compound
10 to 50	Cn1cc(C2CCN(c3ccc4oc(N5CCOCC5)nc4c3)CC2)c2cc(F)cnc21 [Example 23, 5-(4-(5-fluoro-1-methyl-1H-pyrrolo[2,3-b]pyridin-3-yl)piperidin-1-yl)-2-morpholinobenzo[d]oxazole]
1 to 10	Cn1cc(C2CCN(c3ccc4oc(N5CCOCC5)nc4c3)C2)c2cc(F)cnc21 (stereo not shown) [Example 34, 5-(3-(5-fluoro-1-methyl-1H-pyrrolo[2,3-b]pyridin-3-yl)pyrrolidin-1-yl)-2-morpholinobenzo[d]oxazole]

The compounds below were run against T2, flTau aggregates (longest isoform of human Tau, 2N4R) (Homo sapiens, UniProt P10636) (assay: Full-length Tau (flTau) disaggregation assay by Thioflavin T (ThT)). Settings: ThT fluorescence; 60 nM flTau aggregates, 30 minutes at RT; read-out: flTau disaggregation EC50.
T2 construct: 35 μM of recombinant full-length (fl) Tau in phosphate-buffered saline (PBS) were aggregated; purchased Biotechne; host or cells: bacteria
Assay type: biochemical
Method: Full-Length Tau (flTau) Disaggregation Assay by Thioflavin T (ThT)
The longest isoform of human Tau (2N4R; 441 amino acids) was expressed in bacteria and purified (Biotechne). For the Tau disaggregation assay by ThT, 35 μM of recombinant full-length (fl) Tau in phosphate-buffered saline (PBS) were aggregated for 72 hours at 37° C. in presence of 35 μM of heparin (Sigma-Aldrich) and 10 mM of […] (Sigma-Aldrich) under shaking at 1000 RPM. Compound 1 was dissolved in anhydrous dimethyl sulfoxide (DMSO, Sigma-Aldrich) to reach a concentration of 2.5 mM. flTau aggregates and serial dilutions of compound 1 were mixed together in PBS (volume 50 μL) to a final concentration of 60 nM of flTau aggregates and from 20 to 0.0012 μM of Compound 1. The mixture was incubated for 30 minutes at room temperature (RT), then 40 μL of this mixture were transferred into a black 384-well plate assay (Perkin-Elmer) and mixed with 10 μL of 20 μM ThT in 250 mM glycine (both from Sigma-Aldrich) in PBS. Fluorescence (relative fluorescence units; RFU) was measured in monoplicate or duplicate on a Tecan reader (excitation: 440 nm; emission: 485 nm). Percentage of flTau disaggregation was then calculated and the half maximal effective concentration (EC50) was determined using GraphPad Prism version 8 (GraphPad Software) assuming a one-binding site fitting model, see Table 3 and Table 4.

T2 sequence (P10636 1-441 isoform P10636-8): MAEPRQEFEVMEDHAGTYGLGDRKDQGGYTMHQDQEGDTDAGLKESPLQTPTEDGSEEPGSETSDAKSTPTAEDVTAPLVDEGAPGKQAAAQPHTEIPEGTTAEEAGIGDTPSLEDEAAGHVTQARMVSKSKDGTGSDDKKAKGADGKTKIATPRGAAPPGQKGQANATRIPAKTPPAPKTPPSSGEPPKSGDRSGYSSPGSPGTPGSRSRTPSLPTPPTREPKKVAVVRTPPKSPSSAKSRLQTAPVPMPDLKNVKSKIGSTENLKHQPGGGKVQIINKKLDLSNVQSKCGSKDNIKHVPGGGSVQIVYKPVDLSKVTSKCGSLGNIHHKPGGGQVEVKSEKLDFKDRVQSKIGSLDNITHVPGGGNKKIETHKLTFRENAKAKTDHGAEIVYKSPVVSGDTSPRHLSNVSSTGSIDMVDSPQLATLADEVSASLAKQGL

Compound	EC50 [µM]
Cn1cc(C2CCN(c3ccc4sc(N5CCOCC5)nc4c3)C2)c2cc(F)cnc21 (stereo not shown) [Example 81, 4-(5-(3-(5-fluoro-1-methyl-1H-pyrrolo[2,3-b]pyridin-3-yl)pyrrolidin-1-yl)benzo[d]thiazol-2-yl)morpholine]	< 1
Cn1cc(C2CCN(c3ccc4nc(N5CCOCC5)sc4c3)C2)c2cc(F)cnc21 (stereo not shown) [Example 82, 4-(6-(3-(5-fluoro-1-methyl-1H-pyrrolo[2,3-b]pyridin-3-yl)pyrrolidin-1-yl)benzo[d]thiazol-2-yl)morpholine]	< 1
Cn1cc(C2CCN(c3ccc4nc(N5CCOCC5)sc4c3)C2)c2cc(F)cnc21 (stereo not shown) [Example 83, 4-(6-(3-(5-fluoro-1-methyl-1H-pyrrolo[2,3-b]pyridin-3-yl)pyrrolidin-1-yl)benzo[d]thiazol-2-yl)morpholine]	< 1
Cn1cc(C2CCN(c3cnc4oc(N5CCOCC5)nc4c3)C2)c2cc(F)cnc21 (stereo not shown) [Example 84, 6-(3-(5-fluoro-1-methyl-1H-pyrrolo[2,3-b]pyridin-3-yl)pyrrolidin-1-yl)-2-morpholinooxazolo[5,4-b]pyridine]	1 to 10
Cn1cc(C2CCN(c3cnc4oc(N5CCOCC5)nc4c3)C2)c2cc(F)cnc21 (stereo not shown) [Example 85, 6-(3-(5-fluoro-1-methyl-1H-pyrrolo[2,3-b]pyridin-3-yl)pyrrolidin-1-yl)-2-morpholinooxazolo[5,4-b]pyridine]	< 1
Cn1cc(C2CCN(c3cc4nc(N5CCOCC5)oc4cn3)C2)c2cc(F)cnc21 (stereo not shown) [Example 86, 6-(3-(5-fluoro-1-methyl-1H-pyrrolo[2,3-b]pyridin-3-yl)pyrrolidin-1-yl)-2-morpholinooxazolo[5,4-c]pyridine]	1 to 10
Cn1cc(C2CCN(c3cc4nc(N5CCOCC5)oc4cn3)C2)c2cc(F)cnc21 (stereo not shown) [Example 87, 6-(3-(5-fluoro-1-methyl-1H-pyrrolo[2,3-b]pyridin-3-yl)pyrrolidin-1-yl)-2-morpholinooxazolo[5,4-c]pyridine]	1 to 10
Cn1cc(C2CCN(c3ccc4oc(N5CCOCC5)nc4n3)C2)c2cc(F)cnc21 (stereo not shown) [Example 90, 5-(3-(5-fluoro-1-methyl-1H-pyrrolo[2,3-b]pyridin-3-yl)pyrrolidin-1-yl)-2-morpholinooxazolo[4,5-b]pyridine]	< 1
Cn1cc(C2CCN(c3ccc4oc(N5CCOCC5)nc4n3)C2)c2cc(F)cnc21 (stereo not shown) [Example 91, 5-(3-(5-fluoro-1-methyl-1H-pyrrolo[2,3-b]pyridin-3-yl)pyrrolidin-1-yl)-2-morpholinooxazolo[4,5-b]pyridine]	< 1
Cn1cc(C2CCN(c3ccc4sc(N5CCOCC5)nc4c3)C2)c2cc(F)cnc21 (stereo not shown) [Example 95, 4-(5-(3-(5-fluoro-1-methyl-1H-pyrrolo[2,3-b]pyridin-3-yl)pyrrolidin-1-yl)benzo[d]thiazol-2-yl)morpholine]	1 to 10
COC1CCN(c2nc3cc(N4CCC(c5cn(C)c6ncc(F)cc56)C4)ccc3o2)CC1 (stereo not shown) [Example 96, 5-(3-(5-fluoro-1-methyl-1H-pyrrolo[2,3-b]pyridin-3-yl)pyrrolidin-1-yl)-2-(4-methoxypiperidin-1-yl)benzo[d]oxazole]	1 to 10

Next, values leading:

EC50 [µM]	Compound
< 1	Cn1cc(C2CCN(c3ccc4nc(N5CCOCC5)oc4c3)C2)c2cc(F)cnc21 (stereo not shown) [Example 88, 6-(3-(5-fluoro-1-methyl-1H-pyrrolo[2,3-b]pyridin-3-yl)pyrrolidin-1-yl)-2-morpholinobenzo[d]oxazole]
< 1	Cn1cc(C2CCN(c3ccc4nc(N5CCOCC5)oc4c3)C2)c2cc(F)cnc21 (stereo not shown) [Example 89, 6-(3-(5-fluoro-1-methyl-1H-pyrrolo[2,3-b]pyridin-3-yl)pyrrolidin-1-yl)-2-morpholinobenzo[d]oxazole]
1 to 10	COc1cccc2c(C3CCN(c4ccc5oc(N6CCOCC6)nc5c4)CC3)n[nH]c12 [Example 92, 5-(4-(7-methoxy-1H-indazol-3-yl)piperidin-1-yl)-2-morpholinobenzo[d]oxazole]
1 to 10	Cc1cccc2[nH]nc(C3CCN(c4ccc5oc(N6CCOCC6)nc5c4)CC3)c12 [Example 93, 5-(4-(4-methyl-1H-indazol-3-yl)piperidin-1-yl)-2-morpholinobenzo[d]oxazole]
1 to 10	FC1CN(c2ccc3oc(N4CCOCC4)nc3c2)CCC1c1n[nH]c2ccccc12 (stereo not shown) [Example 94, 5-(3-fluoro-4-(1H-indazol-3-yl)piperidin-1-yl)-2-morpholinobenzo[d]oxazole]
1 to 10	COC1CCN(c2nc3cc(N4CCC(c5cn(C)c6ncc(F)cc56)C4)ccc3o2)CC1 (stereo not shown) [Example 97, 5-(3-(5-fluoro-1-methyl-1H-pyrrolo[2,3-b]pyridin-3-yl)pyrrolidin-1-yl)-2-(4-methoxypiperidin-1-yl)benzo[d]oxazole]
1 to 10	c1ccc2c(C3CCN(c4cnc5nc(N6CCOCC6)oc5c4)CC3)c[nH]c2c1 [Example 100, 6-(4-(1H-indol-3-yl)piperidin-1-yl)-2-morpholinooxazolo[4,5-b]pyridine]
10 to 50	Cn1cc(C2CCN(c3ccc4oc(N5CCOCC5)nc4c3)CC2)c2ncc(F)cc21 [Example 105, 5-(4-(6-fluoro-1-methyl-1H-pyrrolo[3,2-b]pyridin-3-yl)piperidin-1-yl)-2-morpholinobenzo[d]oxazole]
1 to 10	c1ccc2c(C3CCN(c4ccc5nc(N6CCOCC6)sc5n4)CC3)n[nH]c2c1 [Example 106, 4-(5-(4-(1H-indazol-3-yl)piperidin-1-yl)thiazolo[5,4-b]pyridin-2-yl)morpholine]
< 1	C1=C(c2c[nH]c3ccccc23)CCN(c2ccc3oc(N4CCOCC4)nc3c2)C1 [Example 107, 5-(4-(1H-indol-3-yl)-3,6-dihydropyridin-1(2H)-yl)-2-morpholinobenzo[d]oxazole]

Same assay, conditions: flTau disaggregation EC50, ThT fluorescence; 60 nM flTau aggregates, 30 minutes at RT

Compound	EC50 [µM]
Cn1cc(C2CCN(c3ccc4oc(N5CC6CC(C5)O6)nc4c3)C2)c2cc(F)cnc21 (stereo not shown) [Example 98, 3-(5-(3-(5-fluoro-1-methyl-1H-pyrrolo[2,3-b]pyridin-3-yl)pyrrolidin-1-yl)benzo[d]oxazol-2-yl)-6-oxa-3-azabicyclo[3.1.1]heptane]	1 to 10

Same assay, conditions: read-out: flTau disaggregation EC50; ThT fluorescence; 60 nM flTau aggregates, 30 minutes at RT

Compound	EC50 [µM]
Cn1cc(C2CCN(c3ccc4oc(N5CC6CC(C5)O6)nc4c3)C2)c2cc(F)cnc21 (stereo not shown) [Example 99, 3-(5-(3-(5-fluoro-1-methyl-1H-pyrrolo[2,3-b]pyridin-3-yl)pyrrolidin-1-yl)benzo[d]oxazol-2-yl)-6-oxa-3-azabicyclo[3.1.1]heptane]	1 to 10

Reference: patent publication US20230391774A1, “Novel Compounds” (AC Immune SA, priority 2020, published 2023)
